Values quoted from earlier work, collected in patent US20130310903A1, “Anti-Depression Light-Wave Device and Usage Thereof” (priority 2012, published 2013).
Like-named read-outs stand apart in the source and are kept apart here.

Settings: 12-week administration; for CGI outcome Worse: share of patients

Fc1ccc([C@@H]2CCNC[C@H]2COc2ccc3c(c2)OCO3)cc1 [Paxil, Paroxetine]
CGI outcome Minimally (20 mg): 33% | CGI outcome Much Improved (20 mg): 18% | CGI outcome No Change (20 mg): 35% | CGI outcome Very Much (20 mg): 7% | CGI outcome Worse (20 mg): 7% | CGI outcome Minimally (40 mg): 29% | CGI outcome Much Improved (40 mg): 22% | CGI outcome No Change (40 mg): 22% | CGI outcome Very Much (40 mg): 20% | CGI outcome Worse (40 mg): 7% | CGI outcome Minimally (60 mg): 34% | CGI outcome Much Improved (60 mg): 24% | CGI outcome No Change (60 mg): 19% | CGI outcome Very Much (60 mg): 20% | CGI outcome Worse (60 mg): 3%
